Source: US20210369583A1, “COMPOSITIONS FOR PROVIDING SKIN CARE BENEFITS AND METHODS OF USE” (Danisco US Inc., priority 2018, published 2021)
Where “and” joins values, the source holds several entries; their conditions need not be identical. Identical values can stand only once.

Tests used:
Assay type in all cases: cell-based
[1] = tested on: Normal Human Epidermal Keratinocytes (NHEK); assay: Protection of keratinocytes under UV-irradiated and hyper-osmotic conditions, flow cytometry; settings: NaCl 150 mM + UVB 250 mj/cm^2
Experimental: (§1) The type of cells use for this study were Normal Human Epidermal Keratinocytes (NHEK), Bioalternatives reference K341 used at the 3rd passage. The culture conditions were: 37° C., 5% CO2. The culture medium is referred to as “keratinocyte-SFM” supplemented with Epidermal Growth Factor (EGF) 0.25 ng/ml, Pituitary extract (PE) 25 μg/ml, Gentamycin 25 μg/ml. The assay medium was “keratinocyte-SFM” supplemented with gentamycin 25 μg/ml.
(§2) Keratinocytes (NHEK) were seeded in 24-well plates and cultured for 24 hours in culture medium. The medium was then replaced by assay medium containing or not (control) the single osmolyte or the combination of osmolytes C1 or C2 and cells were pre-incubated for 24 hours.
For UV-irradiated and hyper-osmotic conditions, the medium was then removed and replaced by assay medium and the cells were irradiated with UVB at 250 mJ/cm2 (+UVA at 1.6 J/cm2). The lamp used was a SOL500 Sun simulator equipped with an H2 filter (Dr. Höle, AG). After irradiation, the medium was removed and replaced by assay medium containing NaCl at 150 mM (hyperosmotic conditions) and containing the single osmolyte or the combination of osmolytes (C1 or C2) and the cells were then incubated for 48 hours. In parallel, a non-irradiated and normo-osmotic control was performed.
(§3) At the end of incubation, culture medium was removed and the cells were rinsed with a PBS solution. The cells were then detached using trypsin treatment and transferred into tubes. After several washes in PBS/BSA 0.2%, the cells were labeled with a propidium iodide (PI) solution (staining of dead cells).
(§4) Cell populations were then analyzed for number (total number of event per well during a fixed time), size (FSC), granularity (SSC) and viability parameters (% PI-positive cells, equivalent to % dead cells) by flow cytometry using BD FACSVerse™ flow cytometer. • Acquisition 1 represents the number of events (=number of cells) passing one by one in front of the cytometer laser over a fixed time. It doesn't distinct dead or living cells at this step. By subtracting the number of events (in hyperosmotic or irradiated condition) from the total number of events in normoosmotic conditions, it is possible to calculate the number of cells that have been lysed due to the stress conditions. • Acquisition 2, represents, on a fixed number of events, 1) the detection of the light scattered when the cells are crossing the laser, FSC-A, from which can be calculated the cell size, 2) the detection of the cells stained by Propidium Iodide (dead cells) from which can be calculated the % of viable cells.

[2] = tested on: Normal Human Epidermal Keratinocytes (NHEK); assay: Protection of keratinocytes under UV-irradiated conditions (UVB 250 mJ/cm2), flow cytometry
Experimental: as §1, §2
For UV-irradiated conditions, the medium was then removed and replaced by assay medium and the cells were irradiated with UVB at 250 mJ/cm2 (+UVA at 1.6 J/cm2). The lamp used was a SOL500 Sun simulator equipped with an H2 filter (Dr. Hole, AG). A non-irradiated control condition was performed in parallel. After irradiation, the medium was removed and replaced by assay medium containing or not (control) the single osmolyte or the combination of osmolytes (C1 or C2) and the cells were incubated for 48 hours.
as §3, §4

[3] = tested on: Reconstructed Human Epidermis (RHE); assay: Caffein diffusion test on Reconstituted Human Epidermis (RHE); settings: for caffein diffusion through RHE: systemic treatment
Experimental: By measuring the amount of […] […] The epidermis used was a Reconstructed Human Epidermis, called “RHE”, 0-day-old, batch no 01015-444, placed in culture conditions 37° C., 5% CO2. The assay medium was the Bioalternatives maintenance medium. RHE at Day 0 (when placed at the air/liquid interface) were placed in assay medium containing or not (control) the compounds, the combination or the reference (vitamin C at 200 μg/ml). This is referred to as a systemic application, to be differentiated from a topical application. RHE were then incubated for 7 days with treatment renewal at Day 3 and Day 5. All experimental conditions were performed in n=3. At the end of incubation (Day 7), radioactive […] ([^14[…] applied on the surface of each epidermis. The radioactivity contained in subnatants was measured by liquid scintillation after 30 minutes, 1, 2, 3, 4, 5, 6, 7 and 8 hours of incubation. The barrier function is calculated according to the below formula:

[4] = tested on: Normal Human Epidermal Keratinocytes (NHEK); assay: Osmoprotective effect on keratinocytes under hyper-osmotic conditions (NaCl 150 mM), flow cytometry
Experimental: as §1, §2
For hyper-osmotic conditions, the medium was removed and replaced by assay medium containing NaCl at 150 mM and containing the single osmolyte or the combination of osmolytes (C1 or C2). The cells were then incubated for 48 hours. In parallel, a normo-osmotic control (no osmotic stress control) was performed.
as §3, §4

O=C(O)[C@@H]1CCCN1 [L-Proline]
Cell size, % hyperosmotic control ([1]; 3 mg/ml): 102% | Mean cell size FSC-A (au) ([1]; 3 mg/ml): 69601 au | Cell size, % hyperosmotic control ([1]; 10 mg/ml): 100% | Mean cell size FSC-A (au) ([1]; 10 mg/ml): 68169 au | viability at 3000 µg/mL ([2]; Homo sapiens, NHEK, light or radiation study, UVB 250 mj/cm^2, 3 mg/ml, read-out: Cell viability, % hyperosmotic control): 103% | effect on cells submitted to UVB irradiation ([2]; UVB 250 mJ/cm^2 alone or in combination with hyperosmotic stress): no clear effect | Cell size, % hyperosmotic control ([2]; UVB 250 mj/cm^2, 3 mg/ml): 110% | Mean % viable cells = 100-% PI-positive cells = 100-% dead cells ([2]; UVB 250 mj/cm^2, 3 mg/ml): 86.4% | Mean cell size FSC-A (au) ([2]; UVB 250 mj/cm^2, 3 mg/ml): 100519 au | Cell size, % hyperosmotic control ([2]; UVB 250 mj/cm^2, 10 mg/ml): 110% | Mean cell size FSC-A (au) ([2]; UVB 250 mj/cm^2, 10 mg/ml): 101243 au | Barrier function % Control ([3]; 0.5 hrs, 3 mg/ml): 96% | Mean [14C]-caffein (cpm) ([3]; 0.5 hrs, 3 mg/ml): 20720 cpm | [14C]-caffein % Control ([3]; 0.5 hrs, 3 mg/ml): 105% | Barrier function % Control ([3]; 0.5 hrs, 10 mg/ml): 98% | Mean [14C]-caffein (cpm) ([3]; 0.5 hrs, 10 mg/ml): 20193 cpm | [14C]-caffein % Control ([3]; 0.5 hrs, 10 mg/ml): 103% | Barrier function % Control ([3]; 1 hrs, 3 mg/ml): 97% | Mean [14C]-caffein (cpm) ([3]; 1 hrs, 3 mg/ml): 47352 cpm | [14C]-caffein % Control ([3]; 1 hrs, 3 mg/ml): 104% | Barrier function % Control ([3]; 1 hrs, 10 mg/ml): 100% | Mean [14C]-caffein (cpm) ([3]; 1 hrs, 10 mg/ml): 45495 cpm | [14C]-caffein % Control ([3]; 1 hrs, 10 mg/ml): 100% | Barrier function % Control ([3]; 2 hrs, 3 mg/ml): 94% | Mean [14C]-caffein (cpm) ([3]; 2 hrs, 3 mg/ml): 106026 cpm | [14C]-caffein % Control ([3]; 2 hrs, 3 mg/ml): 106% | Barrier function % Control ([3]; 2 hrs, 10 mg/ml): 98% | Mean [14C]-caffein (cpm) ([3]; 2 hrs, 10 mg/ml): 102027 cpm | [14C]-caffein % Control ([3]; 2 hrs, 10 mg/ml): 102% | Barrier function % Control ([3]; 3 hrs, 3 mg/ml): 93% | Mean [14C]-caffein (cpm) ([3]; 3 hrs, 3 mg/ml): 147545 cpm | [14C]-caffein % Control ([3]; 3 hrs, 3 mg/ml): 108% | Barrier function % Control ([3]; 3 hrs, 10 mg/ml): 98% | Mean [14C]-caffein (cpm) ([3]; 3 hrs, 10 mg/ml): 140203 cpm | [14C]-caffein % Control ([3]; 3 hrs, 10 mg/ml): 102% | Barrier function % Control ([3]; 4 hrs, 3 mg/ml): 93% | Mean [14C]-caffein (cpm) ([3]; 4 hrs, 3 mg/ml): 169001 cpm | [14C]-caffein % Control ([3]; 4 hrs, 3 mg/ml): 107% | Barrier function % Control ([3]; 4 hrs, 10 mg/ml): 97% | Mean [14C]-caffein (cpm) ([3]; 4 hrs, 10 mg/ml): 162571 cpm | [14C]-caffein % Control ([3]; 4 hrs, 10 mg/ml): 103% | Barrier function % Control ([3]; 5 hrs, 3 mg/ml): 93% | Mean [14C]-caffein (cpm) ([3]; 5 hrs, 3 mg/ml): 184911 cpm | [14C]-caffein % Control ([3]; 5 hrs, 3 mg/ml): 107% | Barrier function % Control ([3]; 5 hrs, 10 mg/ml): 98% | Mean [14C]-caffein (cpm) ([3]; 5 hrs, 10 mg/ml): 176461 cpm | [14C]-caffein % Control ([3]; 5 hrs, 10 mg/ml): 102% | Barrier function % Control ([3]; 6 hrs, 3 mg/ml): 94% | Mean [14C]-caffein (cpm) ([3]; 6 hrs, 3 mg/ml): 190819 cpm | [14C]-caffein % Control ([3]; 6 hrs, 3 mg/ml): 106% | Barrier function % Control ([3]; 6 hrs, 10 mg/ml): 99% | Mean [14C]-caffein (cpm) ([3]; 6 hrs, 10 mg/ml): 181674 cpm | [14C]-caffein % Control ([3]; 6 hrs, 10 mg/ml): 101% | Barrier function % Control ([3]; 7 hrs, 3 mg/ml): 94% | Mean [14C]-caffein (cpm) ([3]; 7 hrs, 3 mg/ml): 199859 cpm | [14C]-caffein % Control ([3]; 7 hrs, 3 mg/ml): 106% | Barrier function % Control ([3]; 7 hrs, 10 mg/ml): 99% | Mean [14C]-caffein (cpm) ([3]; 7 hrs, 10 mg/ml): 190843 cpm | [14C]-caffein % Control ([3]; 7 hrs, 10 mg/ml): 101% | Barrier function % Control ([3]; 8 hrs, 3 mg/ml): 100% and 99% | Barrier function (% L-Proline 3 mg/ml) ([3]; 8 hrs, 3 mg/ml): 104% | Barrier function (% L-Proline 10 mg/ml) ([3]; 8 hrs, 3 mg/ml): 100% | Mean [14C]-caffein (cpm) ([3]; 8 hrs, 3 mg/ml): 193655 cpm and 194941 cpm | [14C]-caffein % Control ([3]; 8 hrs, 3 mg/ml): 100% and 101% | Barrier function % Control ([3]; 8 hrs, 10 mg/ml): 95% | Mean [14C]-caffein (cpm) ([3]; 8 hrs, 10 mg/ml): 203011 cpm | [14C]-caffein % Control ([3]; 8 hrs, 10 mg/ml): 105% | caffein diffusion through RHE ([3]; 3 mg/ml): did not decrease caffein diffusion | caffein diffusion through RHE ([3]; 10 mg/ml): did not decrease caffein diffusion | % cell size difference compared to control hyperosmotic stress condition under 150 mM NaCl ([4]; 3 mg/ml total osmolytes): +4% | % cell size difference compared to control hyperosmotic stress condition under 150 mM NaCl ([4]; 10 mg/ml total osmolytes): +13% | viability at 3000 µg/mL ([4]; Homo sapiens, NHEK, NaCl 150 mM 48 h, 3 mg/ml, read-out: Cell viability, % hyperosmotic control): 143% | Lysed cells, % normo-osmotic control (% cell lysis) ([4]; NaCl 150 mM 48 h, 3 mg/ml): 67.2% | Lysed cells: Mean number of event per well normo-osmotic control − Mean number of event per well hyperosmotic conditions ([4]; NaCl 150 mM 48 h, 3 mg/ml): 73197 | Mean % viable cells = 100-% PI-positive cells = 100-% dead cells ([4]; NaCl 150 mM 48 h, 3 mg/ml): 69.6% | Mean cell size FSC-A (au) ([4]; NaCl 150 mM 48 h, 3 mg/ml): 68417 au | Total number of events per well, % hyperosmotic control ([4]; NaCl 150 mM 48 h, 3 mg/ml): 130% | Total number of events per well, Mean (au) ([4]; NaCl 150 mM 48 h, 3 mg/ml): 18676 au | Cell size, % hyperosmotic control ([4]; NaCl 150 mM 48 h, 10 mg/ml): 113% | Lysed cells, % normo-osmotic control (% cell lysis) ([4]; NaCl 150 mM 48 h, 10 mg/ml): 41.7% and 67.2% | Lysed cells: Mean number of event per well normo-osmotic control − Mean number of event per well hyperosmotic conditions ([4]; NaCl 150 mM 48 h, 10 mg/ml): 56995 | Mean cell size FSC-A (au) ([4]; NaCl 150 mM 48 h, 10 mg/ml): 74581 au | Total number of events per well, % hyperosmotic control ([4]; NaCl 150 mM 48 h, 10 mg/ml): 243% | Total number of events per well, Mean (au) ([4]; NaCl 150 mM 48 h, 10 mg/ml): 34878 au
